Laboratory results: the CheMixHub viscosity set

Assay: xn = mol fraction of the nth substance listed

OCCN(CCO)CCO + CN1CCCC1=O
viscosity [mPa·s], 101 kPa
Settings | x2 = 0.0728 | x2 = 0.1508 | x2 = 0.2354 | x2 = 0.3199 | x2 = 0.4141 | x2 = 0.5135 | x2 = 0.6225 | x2 = 0.7384 | x2 = 0.863
293.15 K | 572.9 | 337.4 | 162.4 | 84.29 | 43.36 | 22.93 | 11.2 | 6.152 | 3.354
303.15 K | 255.2 | 159.4 | 84.21 | 47.61 | 27.51 | 14.93 | 8.012 | 4.62 | 2.747
313.15 K | 123.8 | 77.19 | 47.61 | 28.9 | 16.82 | 10.34 | 5.907 | 3.554 | 1.892
323.15 K | 56.97 | 40.67 | 29.54 | 18.75 | 11.33 | 7.604 | 4.552 | 2.766 | 1.497

CCC#N + CC(=O)N(C)C
303.15 K, 101.33 kPa
Settings | viscosity [mPa·s]
x1 = 0.0953 | 0.8264
x1 = 0.2 | 0.7648
x1 = 0.3021 | 0.7092
x1 = 0.3926 | 0.6613
x1 = 0.4985 | 0.6082
x1 = 0.595 | 0.5621
x1 = 0.699 | 0.5131
x1 = 0.795 | 0.4684
x1 = 0.9013 | 0.425

Nc1ccc(S(=O)(=O)O)cc1 + O
101 kPa
Settings | viscosity [mPa·s]
298.15 K, x1 = 0.0001913 | 0.8949
298.15 K, x1 = 0.0003038 | 0.8969
298.15 K, x1 = 0.0004208 | 0.899
298.15 K, x1 = 0.0005447 | 0.8999
298.15 K, x1 = 0.0006999 | 0.9031
308.15 K, x1 = 0.000111 | 0.7215
308.15 K, x1 = 0.0001913 | 0.7221
308.15 K, x1 = 0.0003038 | 0.724
308.15 K, x1 = 0.0003839 | 0.7252
308.15 K, x1 = 0.0004208 | 0.7255
308.15 K, x1 = 0.0006999 | 0.7281
318.15 K, x1 = 0.0002046 | 0.5999
318.15 K, x1 = 0.0003685 | 0.601
318.15 K, x1 = 0.0005157 | 0.6033
318.15 K, x1 = 0.0006087 | 0.6041
318.15 K, x1 = 0.0006767 | 0.6049
318.15 K, x1 = 0.0007735 | 0.6055

CCCCCCCCCCO + CCCCCCO
viscosity [mPa·s], 101.8 kPa
Settings | x2 = 0.1493 | x2 = 0.3989 | x2 = 0.6071 | x2 = 0.7831 | x2 = 0.9346
298.15 K | 10.38 | 8.464 | 7.01 | 5.822 | 4.905
308.15 K | 7.307 | 6.019 | 5.068 | 4.271 | 3.643
318.15 K | 5.25 | 4.393 | 3.745 | 3.191 | 2.75

Cc1ccccc1C + CCCO
viscosity [mPa·s], 100 kPa
Settings | 298.15 K | 308.15 K
x2 = 0.063 | 0.7471 | 0.6664
x2 = 0.123 | 0.7703 | 0.6751
x2 = 0.2215 | 0.784 | 0.6782
x2 = 0.3496 | 0.8508 | 0.7537
x2 = 0.4648 | 0.9239 | 0.806
x2 = 0.5689 | 1.017 | 0.8647
x2 = 0.6634 | 1.124 | 0.9367
x2 = 0.7497 | 1.264 | 1.029
x2 = 0.8287 | 1.454 | 1.155
x2 = 0.9014 | 1.626 | 1.275
x2 = 0.9684 | 1.836 | 1.49

COCCOCCO + CCCO
viscosity [mPa·s], 101 kPa
Settings | 298.15 K | 308.15 K | 318.15 K
x1 = 0.0105 | 1.951 | 1.522 | 1.248
x1 = 0.0278 | 1.961 | 1.547 | 1.25
x1 = 0.0448 | 1.966 | 1.559 | 1.259
x1 = 0.0797 | 1.979 | 1.566 | 1.275
x1 = 0.0978 | 1.998 | 1.566 | 1.28
x1 = 0.1316 | 2.02 | 1.581 | 1.296
x1 = 0.1852 | 2.069 | 1.613 | 1.326
x1 = 0.2267 | 2.104 | 1.648 | 1.369
x1 = 0.2853 | 2.158 | 1.693 | 1.399
x1 = 0.3029 | 2.172 | 1.713 | 1.415
x1 = 0.3226 | 2.2 | 1.724 | 1.43
x1 = 0.3872 | 2.284 | 1.79 | 1.486
x1 = 0.439 | 2.354 | 1.84 | 1.532
x1 = 0.4811 | 2.416 | 1.888 | 1.573
x1 = 0.5266 | 2.42 | 1.94 | 1.618
x1 = 0.5519 | 2.528 | 1.969 | 1.643
x1 = 0.6051 | 2.624 | 2.037 | 1.694
x1 = 0.6805 | 2.748 | 2.138 | 1.778
x1 = 0.7239 | 2.835 | 2.193 | 1.832
x1 = 0.7925 | 2.967 | 2.29 | 1.917
x1 = 0.8237 | 3.034 | 2.338 | 1.947
x1 = 0.8896 | 3.163 | 2.439 | 2.027
x1 = 0.9096 | 3.207 | 2.464 | 2.051
x1 = 0.9417 | 3.265 | 2.509 | 2.086
x2 = 0.0151 | 3.393 | 2.614 | 2.14

CN1CCN(C)C1=O + CCCCCCCCn1cc[n+](C)c1.[Cl-]
100 kPa
Settings | viscosity [mPa·s]
293.15 K, x2 = 0.6016 | 985.8
313.15 K, x2 = 0.7994 | 773.5
318.15 K, x2 = 0.105 | 3.715
323.15 K, x2 = 0.7994 | 404.5

NC(N)=O + CN(C)C=O
101 kPa
Settings | viscosity [mPa·s]
293.15 K, x1 = 0.00259 | 0.8641
293.15 K, x1 = 0.004089 | 0.8696
293.15 K, x1 = 0.005542 | 0.8749
293.15 K, x1 = 0.007625 | 0.8829
293.15 K, x1 = 0.008542 | 0.8861
293.15 K, x1 = 0.009703 | 0.8909
293.15 K, x1 = 0.01132 | 0.8964
293.15 K, x1 = 0.01367 | 0.906
298.15 K, x1 = 0.002771 | 0.8095
298.15 K, x1 = 0.00599 | 0.8163
298.15 K, x1 = 0.0088 | 0.8219
298.15 K, x1 = 0.01098 | 0.8295
298.15 K, x1 = 0.01142 | 0.8371
298.15 K, x1 = 0.01232 | 0.8421
298.15 K, x1 = 0.01349 | 0.8468
298.15 K, x1 = 0.0148 | 0.8557
303.15 K, x1 = 0.001637 | 0.7596
303.15 K, x1 = 0.003093 | 0.7641
303.15 K, x1 = 0.004755 | 0.7693
303.15 K, x1 = 0.005964 | 0.7728
303.15 K, x1 = 0.007418 | 0.7775
303.15 K, x1 = 0.008306 | 0.7799
303.15 K, x1 = 0.01015 | 0.7857
303.15 K, x1 = 0.01168 | 0.7908
308.15 K, x1 = 0.001989 | 0.7171
308.15 K, x1 = 0.003566 | 0.7214
308.15 K, x1 = 0.005107 | 0.7257
308.15 K, x1 = 0.006768 | 0.73
308.15 K, x1 = 0.008236 | 0.7345
308.15 K, x1 = 0.009277 | 0.7372
308.15 K, x1 = 0.01039 | 0.7403
308.15 K, x1 = 0.01098 | 0.7421
